Drawing on ChEMBL document CHEMBL1212711, “Mechanistic and functional insights into fatty acid activation in Mycobacterium tuberculosis” (Nat Chem Biol, 2009), this text covers Activity, kcat and fold change (FC) for 1 compound.

Structures are written as SMILES. Activity calls are given as the source filed them. No cut-off for these calls is given here.

The term kcat denotes the maximal rate divided by the concentration of active sites.

For test [1], the system named is Mycobacterium tuberculosis H37Rv. The test is described as follows: Activity at Mycobacterium tuberculosis H37Rv FACL19 i mutant containing FAAL28 (342-372) residues instead of FACL6 (362-376) residues assessed as acy-CoA formation by radio-TLC assay.
Test [2] shares this test system. The test is described as follows: Activity at Mycobacterium tuberculosis H37Rv FACL19 AS mutant containing 15 amino acid stretch of alanine and serine residues assessed as acy-CoA formation by radio-TLC assay.
Test [3] has the same test system. The test is described as follows: Activity at Mycobacterium tuberculosis H37Rv FAAL28 deletion mutant assessed as conversion of lauroyl-AMP to lauryl-CoA by radio-TLC assay.
Test [4] has the same test system. The test is described as follows: Selectivity of Mycobacterium tuberculosis H37Rv FAAL28 deletion mutant over wild type FACL1.

As to `CC(C)(COP(=O)(O)OP(=O)(O)OC[C@H]1O[C@@H](n2cnc3c(N)ncnc32)[C@H](O)[C@@H]1OP(=O)(O)O)[C@@H](O)C(=O)NCCC(=O)NCCS` [COENZYME_A], the result in test [1] and in test [2] was inactive. The kcat in test [3] turned out to be 19500 s⁻¹. Moreover, in test [4], the fold change (FC) was 10.
